The text below walks through data of patent publication US12558338B2, “Pharmaceutical composition” (SUNSHINE LAKE PHARMA CO., LTD., priority 2019, dated 2026).

A short description of the series: Solubility in water. The note with it: compared with memantine hydrochloride. The format is physicochemical.

SMILES strings stand for the structures.

On to `CC12CC3CC(C)(C1)CC(NC(=O)OCOC(=O)c1ccccc1)(C3)C2` [formula A, ((((1r,3R,5S,7r)-3,5-dimethyladamantan-1-yl)carbamoyl)oxy)methyl benzoate], for which the solubility entry is reported as “almost insoluble in water”.
